Laboratory results: patent US9695155B2, “Herbicidal substituted pyrimidinyloxy benzene compounds” (E. I. DU PONT DE NEMOURS AND COMPANY, priority 2013, dated 2017)

Columns and labels:
large (Lg) crabgrass [1] = experiment: Test A preemergence; format: in vivo, Digitaria sanguinalis; conditions: for Crabgrass, Large plant response rating: 500 g ai/ha
Procedure, shortened: (§1)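 Greenhouse pot test, loam/sand soil. Formulation: non-phytotoxic solvent mix plus surfactant. Pre: directed spray onto soil after sowing. Post: plants at 1–2 leaf, 2–10 cm. Rated visually vs untreated controls at ~10 d, 0 (no effect) to 100 (complete control).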

corn [2] = experiment: Test A preemergence; format: in vivo, Zea mays; conditions: for Corn plant response rating: 500 g ai/ha
Procedure, shortened: as §1

giant foxtail [3] = experiment: Test A postemergence; format: in vivo, Setaria faberii; conditions: 0 to 100 scale where 0 is no effect and 100 is complete control
Procedure, shortened: as §1

morningglory [4] = experiment: Test A postemergence; format: in vivo, Ipomoea spp.; conditions: 0 to 100 scale where 0 is no effect and 100 is complete control
Procedure, shortened: as §1

Heteranthera limosa = experiment: Test B flooded paddy test; format: in vivo; conditions: Flood, 250 g ai/ha; 0 to 100 scale where 0 is no effect and 100 is complete control
Procedure, shortened: (§2)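 Flooded to 3 cm at the 2-leaf stage, pots received compound through the paddy water and were kept at that depth under greenhouse conditions. After 13–15 days, effect was rated by eye relative to controls, 0 = none and 100 = complete control.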

morningglory [5] = experiment: Test A preemergence; format: in vivo, Ipomoea spp.; conditions: for Morningglory plant response rating: 500 g ai/ha
Procedure, shortened: as §1

barnyardgrass [6] = experiment: Test A preemergence; format: in vivo, Echinochloa crus-galli; conditions: for Barnyardgrass plant response rating: 500 g ai/ha
Procedure, shortened: as §1

barnyardgrass [7] = experiment: Test B flooded paddy test; format: in vivo, Echinochloa crus-galli; conditions: Flood, 250 g ai/ha; 0 to 100 scale where 0 is no effect and 100 is complete control
Procedure, shortened: as §2

giant foxtail [8] = experiment: Test A preemergence; format: in vivo, Setaria faberii; conditions: for Foxtail, Giant plant response rating: 500 g ai/ha
Procedure, shortened: as §1

sedge, umbrella = experiment: Test B flooded paddy test; format: in vivo, Cyperus difformis; conditions: Flood, 250 g ai/ha; 0 to 100 scale where 0 is no effect and 100 is complete control
Procedure, shortened: as §2

pigweed [9] = experiment: Test A postemergence; format: in vivo, Amaranthus retroflexus; conditions: 0 to 100 scale where 0 is no effect and 100 is complete control
Procedure, shortened: as §1

velvetleaf [10] = experiment: Test A preemergence; format: in vivo, Abutilon theophrasti; conditions: for Velvetleaf plant response rating: 500 g ai/ha
Procedure, shortened: as §1

pigweed [11] = experiment: Test A preemergence; format: in vivo, Amaranthus retroflexus; conditions: for Pigweed plant response rating: 500 g ai/ha
Procedure, shortened: as §1

corn [12] = experiment: Test A postemergence; format: in vivo, Zea mays
Procedure, shortened: as §1

velvetleaf [13] = experiment: Test A postemergence; format: in vivo, Abutilon theophrasti; conditions: 0 to 100 scale where 0 is no effect and 100 is complete control
Procedure, shortened: as §1

barnyardgrass [14] = experiment: Test A postemergence; format: in vivo, Echinochloa crus-galli
Procedure, shortened: as §1

wheat [15] = experiment: Test A postemergence; format: in vivo, Triticum aestivum; conditions: 0 to 100 scale where 0 is no effect and 100 is complete control
Procedure, shortened: as §1

rice = experiment: Test B flooded paddy test; format: in vivo, Oryza sativa; conditions: Flood, 250 g ai/ha; 0 to 100 scale where 0 is no effect and 100 is complete control
Procedure, shortened: as §2

large (Lg) crabgrass [16] = experiment: Test A postemergence; format: in vivo, Digitaria sanguinalis
Procedure, shortened: as §1

wheat [17] = experiment: Test A preemergence; format: in vivo, Triticum aestivum; conditions: for Wheat plant response rating: 500 g ai/ha
Procedure, shortened: as §1

[18] = 125 g ai/ha, 0 to 100 scale where 0 is no effect and 100 is complete control
[19] = 0 to 100 scale, 0 no effect, 100 complete control, approx. 10 days
[20] = 500 g ai/ha, 0 to 100 scale, 0 no effect, 100 complete control
[21] = 0 to 100 scale where 0 is no effect and 100 is complete control
[22] = 500 g ai/ha, 0 to 100 scale where 0 is no effect and 100 is complete control

FC(F)(F)c1cccc(Oc2ncc(Cl)cn2)c1-n1cc(Br)cn1 [Compound 64]
Plant response rating, Crabgrass, Large (large (Lg) crabgrass [1]; [18]): 90
Crabgrass, Large plant response rating (large (Lg) crabgrass [1]; [19]): 90
Plant response rating, Corn (corn [2]; [18]): 0
Corn plant response rating (corn [2]; [19]): 70
Plant response rating, Foxtail, Giant (giant foxtail [3]; 125 g ai/ha): 80
Plant response rating, Foxtail, Giant (giant foxtail [3]; 500 g ai/ha): 100
Plant response rating, Morningglory (morningglory [4]; 125 g ai/ha): 60
Plant response rating, Morningglory (morningglory [4]; 500 g ai/ha): 80
Plant response rating, Ducksalad (Heteranthera limosa): 70
Plant response rating, Morningglory (morningglory [5]; [18]): 0
Morningglory plant response rating (morningglory [5]; [19]): 20
Plant response rating, Barnyardgrass (barnyardgrass [6]; [18]): 60
Barnyardgrass plant response rating (barnyardgrass [6]; [19]): 100
Plant response rating, Barnyardgrass (barnyardgrass [7]): 0
Plant response rating, Foxtail, Giant (giant foxtail [8]; [18]): 90
Foxtail, Giant plant response rating (giant foxtail [8]; [19]): 90
Plant response rating, Sedge, Umbrella (sedge, umbrella): 80
Plant response rating, Pigweed (pigweed [9]; 125 g ai/ha): 100
Plant response rating, Pigweed (pigweed [9]; 500 g ai/ha): 100
Plant response rating, Velvetleaf (velvetleaf [10]; [18]): 40
Velvetleaf plant response rating (velvetleaf [10]; [19]): 90
Plant response rating, Pigweed (pigweed [11]; [18]): 90
Pigweed plant response rating (pigweed [11]; [19]): 100
Plant response rating, Corn (corn [12]; [18]): 30
Plant response rating, Corn (corn [12]; [20]): 90
Plant response rating, Velvetleaf (velvetleaf [13]; 125 g ai/ha): 100
Plant response rating, Velvetleaf (velvetleaf [13]; 500 g ai/ha): 100
Plant response rating, Barnyardgrass (barnyardgrass [14]; [18]): 60
Plant response rating, Barnyardgrass (barnyardgrass [14]; [20]): 100
Plant response rating, Wheat (wheat [15]; 125 g ai/ha): 0
Plant response rating, Wheat (wheat [15]; 500 g ai/ha): 30
Plant response rating, Rice (rice): 0
Plant response rating, Crabgrass, Large (large (Lg) crabgrass [16]; [18]): 80
Plant response rating, Crabgrass, Large (large (Lg) crabgrass [16]; [20]): 100
Plant response rating, Wheat (wheat [17]; [18]): 0
Wheat plant response rating (wheat [17]; [19]): 30

N#Cc1cccc(Oc2ncc(Cl)cn2)c1-n1cc(Br)cn1 [Compound 235]
Crabgrass, Large plant response rating (0 to 100 scale) (large (Lg) crabgrass [1]; 125 g ai/ha): 70
Crabgrass, Large plant response rating (large (Lg) crabgrass [1]; [21]): 100
Corn plant response rating (0 to 100 scale) (corn [2]; 125 g ai/ha): 0
Corn plant response rating (corn [2]; [21]): 0
Foxtail, Giant plant response rating (giant foxtail [3]; 125 g ai/ha): 0
Plant response rating, Foxtail, Giant (giant foxtail [3]; 500 g ai/ha): 30
Morningglory plant response rating (morningglory [4]; 125 g ai/ha): 30
Plant response rating, Morningglory (morningglory [4]; 500 g ai/ha): 30
Plant response rating, Ducksalad (Heteranthera limosa): 0
Morningglory plant response rating (0 to 100 scale) (morningglory [5]; 125 g ai/ha): 0
Morningglory plant response rating (morningglory [5]; [21]): 0
Barnyardgrass plant response rating (0 to 100 scale, 0 is no effect, 100 is complete control) (barnyardgrass [6]; 125 g ai/ha): 0
Barnyardgrass plant response rating (barnyardgrass [6]; [21]): 10
Plant response rating, Barnyardgrass (barnyardgrass [7]): 0
Foxtail, Giant plant response rating (0 to 100 scale) (giant foxtail [8]; 125 g ai/ha): 30
Foxtail, Giant plant response rating (giant foxtail [8]; [21]): 100
Plant response rating, Sedge, Umbrella (sedge, umbrella): 0
Pigweed plant response rating (pigweed [9]; 125 g ai/ha): 90
Plant response rating, Pigweed (pigweed [9]; 500 g ai/ha): 100
Velvetleaf plant response rating (0 to 100 scale) (velvetleaf [10]; 125 g ai/ha): 0
Velvetleaf plant response rating (velvetleaf [10]; [21]): 0
Pigweed plant response rating (0 to 100 scale) (pigweed [11]; 125 g ai/ha): 90
Pigweed plant response rating (pigweed [11]; [21]): 100
Corn plant response rating (corn [12]; [18]): 0
Plant response rating, Corn (corn [12]; [22]): 0
Velvetleaf plant response rating (velvetleaf [13]; 125 g ai/ha): 30
Plant response rating, Velvetleaf (velvetleaf [13]; 500 g ai/ha): 30
Barnyardgrass plant response rating (barnyardgrass [14]; [18]): 0
Plant response rating, Barnyardgrass (barnyardgrass [14]; [22]): 0
Wheat plant response rating (wheat [15]; 125 g ai/ha): 0
Plant response rating, Wheat (wheat [15]; 500 g ai/ha): 0
Plant response rating, Rice (rice): 0
Crabgrass, Large plant response rating (large (Lg) crabgrass [16]; [18]): 10
Plant response rating, Crabgrass, Large (large (Lg) crabgrass [16]; [22]): 30
Wheat plant response rating (0 to 100 scale) (wheat [17]; 125 g ai/ha): 0
Wheat plant response rating (wheat [17]; [21]): 0
